Reference: patent US8518953B2, “Aminopyrimidines useful as inhibitors of protein kinases” (Vertex Pharmaceuticals Incorporated, priority 2007, dated 2013)

Tests used:
[1] = tested on: rat brains after transient middle cerebral artery occlusion; details: rat brains after transient MCAO; cited from earlier work
GSK3α TYR 279 = target: T1, GSK3α TYR 279 (Homo sapiens, UniProt P49840); assay: GSK-3α p-TYR Inhibition Assay (western blotting of Jurkat cells); format: cell-based; details: western blot, read-out: GSK3a pTYR 279: IC50
T1 construct: western blotting of Jurkat cells dosed with the compounds; endogenous in cells; host or cells: Jurkat cells
Method: (§1) Compounds are screened for their ability to inhibit the phosphorylation of tyrosine (TYR) residues through the use of western blotting of Jurkat cells dosed with the compounds. The phosphorylation of the specific TYR residues tested are GSK3α TYR 279 and GSK3β TYR 216.
(§2) Jurkat cells are seeded at a density of 2×10^5 cells/well in a 12 well dish in starvation media (RPMI+1% FBS+P/S). Following starvation for 16 hours, the compound is dosed into each well at a final DMSO concentration of 0.3% and cells are incubated o/n at 37° C. 5% CO2. The next day, cells are spun down at 1500 rpm, washed with PBS, and lysed in 100 uL Laemli sample buffer with β-mercaptoethanol.
(§3) 15 microliters (uL) of cell lysates are loaded onto a 10% tris-glycine gel and run at 120 v for 2 hours or until dye front runs off of the gel. The protein is then transferred onto a PVDF membrane at 100 v for 60 min. PBST (PBS containing 0.1% Tween 20, such as 1 ml Tween per 1 L of PBS) is then made up and used for all washes and antibody incubations. The blot is blocked in 5% nonfat milk PBST for one hour.
(§4) The primary antibody (GSK-3α/β pTYR 279/216 at 1:1000 dilution Upstate cat#05-413) is then added in […] PBST overnight at 4° C. with gentle rocking. The blot is then washed in PBST for 5 min. This is then repeated 4 times. […]

GSK3β TYR 216 = target: T2, GSK3β TYR 216 (Homo sapiens, UniProt P49841); assay: GSK3β p-TYR Inhibition Assay (western blotting of Jurkat cells); format: cell-based; details: western blot, read-out: GSK3b pTYR 216: IC50
T2 construct: western blotting of Jurkat cells dosed with the compounds; endogenous in cells; host or cells: Jurkat cells
Method: as §1, §2, §3, §4

[2] = tested on: β-catenin dependent TCF/LEF transcriptional activity; assay: β-Catenin Stabilization Protocol (β-lactamase reporter assay in Jurkat cells); format: cell-based; details: Homo sapiens, 460/530 ratio, read-out: Beta Catenin IC50
From the text: GSK-3 phosphorylation of β-catenin targets it to the proteosome for degradation. Inhibition of GSK-3 results in accumulation of β-catenin in the cytosol of cells which through interaction with the transcription factor TCF/LEF translocates to the nucleus and drives the transcription of Wnt-dependent genes. The assay is designed to determine the level of β-catenin dependent TCF/LEF transcriptional activity in a quantitative manner through the use of a β-lactamase reporter assay in Jurkat cells dosed with a compound.
Jurkat β-catenin cells are starved overnight in assay media (1% FBS, 1× Penstrep, RPMI) in the flask. The next day Jurkat β-catenin cells are seeded in 96 well flat bottom plates at a density of 50,000 cells/well in assay media in a volume of 100 ul. The compound is added to the well at a final DMSO concentration of 0.75% and incubated at 37° C. o/n. The next day, 20 uL of 6×CCF4 dye is added to the wells and incubated at room temperature for 1-2 hours. Plates are read on the Cytofluor 4000 series multiwell plate reader and the 460/530 ratio is determined.

GSK-3β (AA 1-420) = target: T3, GSK-3β (AA 1-420) (Homo sapiens, UniProt P49841); assay: GSK-3 Inhibition Assay (standard coupled enzyme system); format: biochemical; details: 20 μM ATP, 300 μM peptide, 20 nM GSK-3β, 30° C.
T3 construct: GSK-3β (AA 1-420)
Method: Compounds of the present invention were screened for their ability to inhibit GSK-3β (AA 1-420) activity using a standard coupled enzyme system (Fox et al., Protein Sci. 1998, 7, 2249). Reactions were carried out in a solution containing 100 mM HEPES (pH 7.5), 10 mM MgCl2, 25 mM NaCl, 300 μM NADH, 1 mM DTT and 1.5% DMSO. Final substrate concentrations in the assay were 20 μM ATP (Sigma Chemicals, St Louis, Mo.) and 300 μM peptide (American Peptide, Sunnyvale, Calif.). Reactions were carried out at 30° C. and 20 nM GSK-3β. Final concentrations of the components of the coupled enzyme system were 2.5 mM phosphoenolpyruvate, 300 μM NADH, 30 μg/ml pyruvate kinase and 10 μg/ml lactate dehydrogenase.
An assay stock buffer solution was prepared containing all of the reagents listed above with the exception of ATP and the test compound of the present invention. The assay stock buffer solution (175 μl) was incubated in a 96 well plate with 5 μl of the test compound of the present invention at final concentrations spanning 0.002 μM to 30 μM at 30° C. for 10 min. […] Rates of reaction were obtained using a Molecular Devices Spectramax plate reader (Sunnyvale, Calif.) over 10 min at 30° C. The Ki values were determined from the rate data as a function of inhibitor concentration.

T2 sequence (P49841 whole entry): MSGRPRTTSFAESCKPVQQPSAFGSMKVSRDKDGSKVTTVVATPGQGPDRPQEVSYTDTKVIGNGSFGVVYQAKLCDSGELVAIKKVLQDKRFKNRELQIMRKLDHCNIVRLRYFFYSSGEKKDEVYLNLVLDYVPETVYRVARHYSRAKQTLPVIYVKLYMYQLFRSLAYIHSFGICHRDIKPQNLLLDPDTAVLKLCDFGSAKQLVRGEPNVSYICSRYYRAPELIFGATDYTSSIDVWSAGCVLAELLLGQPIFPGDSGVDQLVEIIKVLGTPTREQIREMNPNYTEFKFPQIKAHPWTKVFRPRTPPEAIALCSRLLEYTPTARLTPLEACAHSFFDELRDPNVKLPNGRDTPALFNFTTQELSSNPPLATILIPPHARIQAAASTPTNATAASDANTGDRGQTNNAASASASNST
T3 sequence (P49841 whole entry, species assumed, the tested form may be a part): as the sequence (P49841 whole entry) above
T1 sequence (P49840 whole entry): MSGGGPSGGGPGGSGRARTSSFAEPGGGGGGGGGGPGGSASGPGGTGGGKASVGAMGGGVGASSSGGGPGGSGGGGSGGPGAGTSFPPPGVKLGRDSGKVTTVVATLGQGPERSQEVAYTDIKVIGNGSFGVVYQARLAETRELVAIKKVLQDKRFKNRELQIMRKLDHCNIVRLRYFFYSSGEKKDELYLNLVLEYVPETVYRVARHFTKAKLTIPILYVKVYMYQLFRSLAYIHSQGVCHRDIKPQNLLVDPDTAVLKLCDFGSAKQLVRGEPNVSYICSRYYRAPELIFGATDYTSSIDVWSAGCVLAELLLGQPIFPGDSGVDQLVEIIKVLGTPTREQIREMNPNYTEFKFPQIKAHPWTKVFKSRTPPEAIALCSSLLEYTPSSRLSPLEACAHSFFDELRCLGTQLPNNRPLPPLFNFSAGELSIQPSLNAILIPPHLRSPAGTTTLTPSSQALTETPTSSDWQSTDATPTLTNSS

Compound	infarct size [1]	IC50 (GSK3α TYR 279) [nM]	IC50 (GSK3β TYR 216) [nM]	IC50 [2] [nM]	Ki (GSK-3β (AA 1-420)) [nM]
IGF-1: insulin growth factor-1, a known GSK-3 inhibitor	reduced infarct size	–	–	–	–
CCc1c(C)nc(-c2ccccc2Cl)nc1Nc1n[nH]c2ncc(F)cc12 [Compound I-2]	–	2	30	940	< 5
